± gives the standard deviation of the reports.
Structure (SMILES)	glass transition temperature
*Oc1c(F)c(F)c(Oc2c(F)c(F)c3c(c2F)C(=O)N(c2c(F)c(F)c(Oc4c(F)c(F)c(N5C(=O)c6c(F)c(*)c(F)c(F)c6C5=O)c(F)c4F)c(F)c2F)C3=O)c(F)c1F (repeat unit)	300.00 °C
*c1ccc(Cc2ccc(-n3c(=O)c4cc5c(=O)n(*)c(=O)c5cc4c3=O)c(C)c2)cc1C (repeat unit)	274.00 °C
*Oc1cccc(C(C)(C)c2ccc(Oc3ccc4c(c3)C(=O)N(c3ccc(Oc5ccc(N6C(=O)c7ccc(*)cc7C6=O)cc5)cc3)C4=O)cc2)c1 (repeat unit)	223.00 °C
*Sc1ccc2c(c1)C(=O)N(c1ccc(Oc3ccc(Oc4ccc(N5C(=O)c6cccc(*)c6C5=O)cc4)cc3)cc1)C2=O (repeat unit)	238.00 ± 5.7 °C
*C(=O)c1ccc2c(c1)C(=O)N(c1ccc(Oc3ccccc3N3C(=O)c4ccc(*)cc4C3=O)cc1)C2=O (repeat unit)	287.00 °C
*C(=O)c1ccc2c(c1)C(=O)N(c1ccc(C(=O)Oc3ccc4ccccc4c3-c3c(OC(=O)c4ccc(N5C(=O)c6ccc(*)cc6C5=O)cc4)ccc4ccccc34)cc1)C2=O (repeat unit)	273.50 °C
*c1ccc2c(c1)C(=O)N(c1ccc(OCC(F)(F)C(F)(F)C(F)(F)F)c(N3C(=O)c4ccc(C(*)(C(F)(F)F)C(F)(F)F)cc4C3=O)c1)C2=O (repeat unit)	266.00 °C
*c1ccc2c(c1)C(=O)N(c1ccc(-c3ccc(N4C(=O)c5ccc(C(*)(C(F)(F)F)C(F)(F)F)cc5C4=O)cc3-c3cccc(C(F)(F)F)c3)c(-c3cccc(C(F)(F)F)c3)c1)C2=O (repeat unit)	278.00 °C
*c1ccc(Oc2ccccc2N2C(=O)c3cc4c(cc3C2=O)C(=O)N(*)C4)cc1 (repeat unit)	386.00 °C
*Oc1ccc2c(c1)C(=O)N(c1cccc(Oc3ccc(P(=O)(c4ccccc4)c4ccc(Oc5ccc(N6C(=O)c7ccc(*)cc7C6=O)cc5)cc4)cc3)c1)C2=O (repeat unit)	240.00 °C
*Oc1ccc2c(c1)C(=O)N(c1ccc(C(=O)c3ccc(N4C(=O)c5ccc(*)cc5C4=O)cc3)cc1)C2=O (repeat unit)	274.00 °C
*c1cccc2c1C(=O)N(c1ccc(Oc3ccc(N4C(=O)c5cccc(*)c5C4=O)cc3)cc1)C2=O (repeat unit)	306.00 ± 26 °C
*Oc1cccc(C(=O)c2ccc(Oc3cccc4c3C(=O)N(c3cccc(N5C(=O)c6cccc(*)c6C5=O)c3)C4=O)cc2)c1 (repeat unit)	248.00 °C
*c1ccc(C(=O)c2ccccc2-n2c(=O)c3cc4c(=O)n(*)c(=O)c4cc3c2=O)cc1 (repeat unit)	321.00 °C
*Oc1ccc(C(C)(C)c2ccc(Cc3ccc4c(c3)C(=O)N(c3cccc(N5C(=O)c6ccc(*)cc6C5=O)c3)C4=O)cc2)cc1 (repeat unit)	215.00 °C
*C(=O)c1ccc2c(c1)C(=O)N(c1cccc(Oc3cccc(N4C(=O)c5ccc(*)cc5C4=O)c3)c1)C2=O (repeat unit)	221.00 °C
*Oc1cccc(Sc2ccc(Oc3ccc4c(c3)C(=O)N(c3ccc(Oc5ccc(N6C(=O)c7ccc(*)cc7C6=O)cc5)cc3)C4=O)cc2)c1 (repeat unit)	212.00 °C
*C(=O)c1ccc2c(c1)C(=O)N(c1cc(N3C(=O)c4ccc(*)cc4C3=O)ccc1OCC(F)(F)C(F)(F)C(F)(F)C(F)(F)C(F)(F)C(F)(F)C(F)(F)C(F)(F)C(F)(F)C(F)(F)F)C2=O (repeat unit)	194.00 °C
*c1ccc(-c2ccc(N3C(=O)c4cc5c(cc4C3=O)C(c3ccccc3)(C(F)(F)F)c3cc4c(cc3O5)C(=O)N(*)C4=O)cc2C(F)(F)F)c(C(F)(F)F)c1 (repeat unit)	400.00 °C
*Oc1cccc(C(C)(C)c2ccc(Oc3cccc4c3C(=O)N(c3cccc(N5C(=O)c6cccc(*)c6C5=O)c3)C4=O)cc2)c1 (repeat unit)	236.00 °C
*C(=O)c1ccc2c(c1)C(=O)N(c1ccc(Cc3cccc(N4C(=O)c5ccc(*)cc5C4=O)c3)cc1)C2=O (repeat unit)	292.00 °C
*Oc1cccc2c1C(=O)N(c1cccc(S(=O)(=O)c3cccc(N4C(=O)c5cccc(*)c5C4=O)c3)c1)C2=O (repeat unit)	241.00 °C

Structure (SMILES)	glass transition temperature
*Oc1cccc(S(=O)(=O)c2ccc(Oc3ccc4c(c3)C(=O)N(c3ccc(Oc5ccc(N6C(=O)c7ccc(*)cc7C6=O)cc5)cc3)C4=O)cc2)c1 (repeat unit)	260.00 °C
*C(=O)c1ccc2c(c1)C(=O)N(c1cccc(Oc3ccccc3N3C(=O)c4ccc(*)cc4C3=O)c1)C2=O (repeat unit)	259.00 °C
*Oc1cccc(Oc2ccc(Oc3ccc4c(c3)C(=O)N(c3ccc(Oc5ccc(N6C(=O)c7ccc(*)cc7C6=O)cc5)cc3)C4=O)cc2)c1 (repeat unit)	215.00 °C
*C(=O)c1ccc2c(c1)C(=O)N(c1ccc(Cc3ccccc3N3C(=O)c4ccc(*)cc4C3=O)cc1)C2=O (repeat unit)	290.00 °C
*c1ccc2c(c1)C(=O)N(c1ccc(-c3ccc(N4C(=O)c5ccc(C(*)(C(F)(F)F)C(F)(F)F)cc5C4=O)cc3Cl)c(Cl)c1)C2=O (repeat unit)	336.00 °C
*Oc1cccc(S(=O)(=O)c2ccc(Oc3ccc4c(c3)C(=O)N(c3ccc(Oc5cccc(Oc6ccc(N7C(=O)c8ccc(*)cc8C7=O)cc6)c5)cc3)C4=O)cc2)c1 (repeat unit)	194.00 °C
*Oc1ccc(C(c2ccc(Oc3cccc4c3C(=O)N(c3ccc(Oc5ccc(N6C(=O)c7cccc(*)c7C6=O)cc5)cc3)C4=O)cc2)(C(F)(F)F)C(F)(F)F)cc1 (repeat unit)	226.00 °C
*Oc1cccc2c1C(=O)N(c1cccc(Oc3ccc(C(=O)c4ccc(Oc5cccc(N6C(=O)c7cccc(*)c7C6=O)c5)cc4)cc3)c1)C2=O (repeat unit)	198.00 °C
*c1cccc2c1C(=O)N(c1ccc(Cc3ccc(N4C(=O)c5cccc(*)c5C4=O)c(C)c3)cc1C)C2=O (repeat unit)	299.50 ± 0.7 °C
*C(=O)Oc1ccc2ccccc2c1-c1c(OC(=O)c2ccc3c(c2)C(=O)N(c2ccc(C(=O)Oc4ccc5ccccc5c4-c4c(OC(=O)c5ccc(N6C(=O)c7ccc(*)cc7C6=O)cc5)ccc5ccccc45)cc2)C3=O)ccc2ccccc12 (repeat unit)	266.50 °C
*c1cc(N2C(=O)c3ccc(-c4ccc5c(c4)C(=O)N(*)C5=O)cc3C2=O)ccc1OCC(F)(F)C(F)(F)C(F)(F)C(F)(F)C(F)(F)C(F)(F)F (repeat unit)	262.00 °C
*C(=O)c1ccc2c(c1)C(=O)N(c1c(CC)cc(Cc3cc(CC)c(N4C(=O)c5ccc(*)cc5C4=O)c(CC)c3Cl)c(Cl)c1CC)C2=O (repeat unit)	300.00 °C
*c1ccc2c(c1)C(=O)N(c1c(F)cc(Oc3ccc(C(c4ccc(Oc5cc(F)c(N6C(=O)c7ccc(C(*)(C(F)(F)F)C(F)(F)F)cc7C6=O)c(F)c5)cc4)(C(F)(F)F)C(F)(F)F)cc3)cc1F)C2=O (repeat unit)	224.00 °C
*c1ccc2c(c1)C(=O)N(c1ccc(Cc3ccc(N4C(=O)c5ccc(*)cc5C4=O)c(C)c3C)c(C)c1C)C2=O (repeat unit)	297.00 °C
*c1ccc2c(c1)C(=O)N(c1ccc(-c3ccc(N4C(=O)c5ccc(C(*)(C(F)(F)F)C(F)(F)F)cc5C4=O)cc3-c3ccccc3C(F)(F)F)c(-c3ccccc3C(F)(F)F)c1)C2=O (repeat unit)	289.00 °C
*C(=O)c1ccc2c(c1)C(=O)N(c1cccc(C(=O)c3ccccc3N3C(=O)c4ccc(*)cc4C3=O)c1)C2=O (repeat unit)	259.00 °C
*Oc1ccc2c(c1)C(=O)N(c1cccc(Oc3ccc(C(=O)c4ccc(Oc5cccc(N6C(=O)c7cccc(*)c7C6=O)c5)cc4)cc3)c1)C2=O (repeat unit)	205.50 ± 2.1 °C
*c1ccc2c(c1)C(=O)N(c1ccc(Oc3ccc(P(=O)(c4ccccc4)c4ccc(Oc5cccc(N6C(=O)c7ccc(C(*)(C(F)(F)F)C(F)(F)F)cc7C6=O)c5)cc4)cc3)cc1)C2=O (repeat unit)	220.00 °C
*Oc1cccc(C(=O)c2ccc(Oc3ccc4c(c3)C(=O)N(c3ccc(Oc5ccc(N6C(=O)c7ccc(*)cc7C6=O)cc5)cc3)C4=O)cc2)c1 (repeat unit)	210.00 °C
*C(=O)c1ccc2c(c1)C(=O)N(c1cccc(C(=O)c3cccc(N4C(=O)c5ccc(*)cc5C4=O)c3)c1)C2=O (repeat unit) [Polyimide]	220 ± 130 °C
*c1ccc2c(c1)C(=O)N(c1cccc(S(=O)(=O)c3cccc(N4C(=O)c5ccc(*)cc5C4=O)c3)c1)C2=O (repeat unit)	260.00 °C
*Oc1cccc(S(=O)(=O)c2ccc(Oc3cccc4c3C(=O)N(c3cccc(N5C(=O)c6cccc(*)c6C5=O)c3)C4=O)cc2)c1 (repeat unit)	266.00 °C

Source: the PolyMetriX glass transition set
